# Data from ChEMBL document CHEMBL5465560, “Selectivity Literature for EUbOPEN Chemogenomic Library” (2024).
# Tests used:
# [1] = biological target: Tyrosine-protein kinase ITK/TSK (Homo sapiens, UniProt Q08881); assay: Selectivity interaction (Enyzmatic assay) EUB0000601a ITK
# [2] = biological target: NT-3 growth factor receptor (Homo sapiens, UniProt Q16288); assay: Selectivity interaction (Ambit KINOMEscan and KiNATiv profiling in Jurkat cells) EUB0000090b NTRK3; format: cell-based; settings: at 1 µM
# [3] = biological target: T1, Receptor-interacting serine/threonine-protein kinase 4 (Homo sapiens) (UniProt P57078); assay: Selectivity interaction (Ambit KINOMEscan and KiNATiv profiling in Jurkat cells) EUB0000090b RIPK4; format: cell-based; settings: at 1 µM
# T1 sequence (whole entry): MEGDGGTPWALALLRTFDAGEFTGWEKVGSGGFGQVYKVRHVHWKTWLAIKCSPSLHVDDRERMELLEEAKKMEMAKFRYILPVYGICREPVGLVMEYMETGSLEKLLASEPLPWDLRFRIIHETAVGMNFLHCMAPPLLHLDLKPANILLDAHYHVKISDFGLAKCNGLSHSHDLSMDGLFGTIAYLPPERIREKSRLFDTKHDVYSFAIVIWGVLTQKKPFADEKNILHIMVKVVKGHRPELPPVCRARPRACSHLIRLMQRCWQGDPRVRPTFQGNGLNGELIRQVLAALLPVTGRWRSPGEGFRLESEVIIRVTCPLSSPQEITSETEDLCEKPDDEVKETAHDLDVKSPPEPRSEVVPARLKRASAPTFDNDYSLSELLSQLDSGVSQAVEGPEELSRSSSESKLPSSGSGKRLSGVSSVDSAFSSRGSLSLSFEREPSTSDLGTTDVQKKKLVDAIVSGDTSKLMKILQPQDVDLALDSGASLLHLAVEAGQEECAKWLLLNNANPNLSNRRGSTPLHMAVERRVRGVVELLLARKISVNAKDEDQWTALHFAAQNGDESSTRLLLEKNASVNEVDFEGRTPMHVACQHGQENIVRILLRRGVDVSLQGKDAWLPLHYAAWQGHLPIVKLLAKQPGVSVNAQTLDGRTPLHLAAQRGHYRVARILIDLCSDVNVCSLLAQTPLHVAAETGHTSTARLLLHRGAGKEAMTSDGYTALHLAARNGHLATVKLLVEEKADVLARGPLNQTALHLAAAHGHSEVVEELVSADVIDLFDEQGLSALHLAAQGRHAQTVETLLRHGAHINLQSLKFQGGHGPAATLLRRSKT
# SRSF protein kinase 1 = SRSF protein kinase 1 (Homo sapiens, UniProt Q96SB4); assay: Selectivity interaction (Kinase panel (DSF assay)) EUB0001559a SRPK1
# [4] = biological target: Mitogen-activated protein kinase 8 (Homo sapiens, UniProt P45983); assay: Selectivity interaction (Enzymatic assay) EUB0001199aCl MAPK8
# [5] = biological target: Tyrosine-protein kinase Lyn (Homo sapiens, UniProt P07948); assay: Selectivity interaction (KinomeScan (DiscoverX)) EUB0000655a LYN; settings: at 10 µM
# [6] = biological target: Bone morphogenetic protein receptor type-1A (Homo sapiens, UniProt P36894); assay: Selectivity interaction (KinomeScan (DiscoverX)) EUB0000655a BMPR1A; settings: at 10 µM
# [7] = biological target: Cyclin-dependent kinase 5/CDK5 activator 1 (Homo sapiens) (UniProt Q00535+Q15078); assay: Selectivity interaction (Millipore kinase profiler) EUB0000124b CDK5; format: protein-complex assay; settings: at 10 µM
# [8] = biological target: Serine/threonine-protein kinase 32C (Homo sapiens) (UniProt Q86UX6); assay: Selectivity interaction (KinomeScan (DiscoverX)) EUB0000595a STK32C; settings: at 10 µM
# [9] = biological target: T2, Serine/threonine-protein kinase Nek5 (Homo sapiens) (UniProt Q6P3R8); settings: at 10 µM
# T2 sequence (whole entry): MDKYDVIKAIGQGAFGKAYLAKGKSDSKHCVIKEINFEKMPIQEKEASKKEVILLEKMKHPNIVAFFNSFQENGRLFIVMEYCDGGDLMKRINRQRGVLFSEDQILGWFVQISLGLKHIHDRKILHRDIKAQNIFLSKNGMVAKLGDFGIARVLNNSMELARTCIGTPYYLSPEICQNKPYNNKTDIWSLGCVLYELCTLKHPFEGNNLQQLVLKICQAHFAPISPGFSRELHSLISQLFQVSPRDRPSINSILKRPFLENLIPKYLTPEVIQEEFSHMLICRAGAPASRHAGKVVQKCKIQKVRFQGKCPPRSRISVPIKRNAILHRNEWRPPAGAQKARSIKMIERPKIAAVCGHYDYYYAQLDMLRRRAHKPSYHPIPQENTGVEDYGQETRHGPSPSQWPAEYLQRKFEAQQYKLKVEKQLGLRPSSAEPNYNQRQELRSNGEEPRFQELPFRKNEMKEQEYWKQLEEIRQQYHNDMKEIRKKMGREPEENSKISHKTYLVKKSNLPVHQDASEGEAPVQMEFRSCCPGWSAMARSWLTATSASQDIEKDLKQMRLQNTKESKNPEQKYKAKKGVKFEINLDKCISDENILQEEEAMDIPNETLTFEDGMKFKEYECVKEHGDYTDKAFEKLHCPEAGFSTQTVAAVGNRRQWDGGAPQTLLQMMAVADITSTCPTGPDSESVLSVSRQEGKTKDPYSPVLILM
# [10] = biological target: Serine/threonine-protein kinase N1 (Homo sapiens, UniProt Q16512); assay: Selectivity interaction (ActivX KiNativ screen (kinase selectivity in THP-1 cell lysates)) EUB0000639a PKN1; format: subcellular; settings: lysate, at 0.04 µM
# [11] = biological target: Ribosomal protein S6 kinase alpha-1 (Homo sapiens, UniProt Q15418); assay: Selectivity interaction (ActivX KiNativ screen (kinase selectivity in THP-1 cell lysates)) EUB0000639a RPS6KA1; format: subcellular; settings: lysate, at 0.01 µM
# [12] = biological target: Activin receptor type-2A (Homo sapiens) (UniProt P27037); assay: Selectivity interaction (KinomeScan (DiscoverX)) EUB0001049a ACVR2A; settings: at 1 µM
# [13] = biological target: Serine/threonine-protein kinase WNK3 (Homo sapiens) (UniProt Q9BYP7); assay: Selectivity interaction (KinomeScan (DiscoverX)) EUB0001049a WNK3; settings: at 1 µM
# [14] = biological target: Myosin light chain kinase 2, skeletal/cardiac muscle (Homo sapiens) (UniProt Q9H1R3); assay: Selectivity interaction (KinomeScan (DiscoverX)) EUB0000695a MYLK2; settings: at 100 nM
# Mitogen-activated protein kinase 8, sequence (P45983 whole entry): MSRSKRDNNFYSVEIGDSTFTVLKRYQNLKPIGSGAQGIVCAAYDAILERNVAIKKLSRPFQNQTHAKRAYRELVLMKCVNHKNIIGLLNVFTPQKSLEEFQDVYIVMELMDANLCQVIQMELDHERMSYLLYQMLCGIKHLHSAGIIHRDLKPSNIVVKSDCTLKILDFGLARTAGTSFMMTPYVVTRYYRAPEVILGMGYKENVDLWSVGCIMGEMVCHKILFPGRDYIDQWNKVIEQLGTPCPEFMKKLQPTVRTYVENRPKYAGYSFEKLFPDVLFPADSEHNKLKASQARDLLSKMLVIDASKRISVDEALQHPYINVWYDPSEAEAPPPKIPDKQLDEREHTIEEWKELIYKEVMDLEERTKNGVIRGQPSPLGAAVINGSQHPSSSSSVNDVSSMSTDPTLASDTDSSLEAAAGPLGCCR
# Serine/threonine-protein kinase WNK3 (Homo sapiens), sequence (Q9BYP7 whole entry): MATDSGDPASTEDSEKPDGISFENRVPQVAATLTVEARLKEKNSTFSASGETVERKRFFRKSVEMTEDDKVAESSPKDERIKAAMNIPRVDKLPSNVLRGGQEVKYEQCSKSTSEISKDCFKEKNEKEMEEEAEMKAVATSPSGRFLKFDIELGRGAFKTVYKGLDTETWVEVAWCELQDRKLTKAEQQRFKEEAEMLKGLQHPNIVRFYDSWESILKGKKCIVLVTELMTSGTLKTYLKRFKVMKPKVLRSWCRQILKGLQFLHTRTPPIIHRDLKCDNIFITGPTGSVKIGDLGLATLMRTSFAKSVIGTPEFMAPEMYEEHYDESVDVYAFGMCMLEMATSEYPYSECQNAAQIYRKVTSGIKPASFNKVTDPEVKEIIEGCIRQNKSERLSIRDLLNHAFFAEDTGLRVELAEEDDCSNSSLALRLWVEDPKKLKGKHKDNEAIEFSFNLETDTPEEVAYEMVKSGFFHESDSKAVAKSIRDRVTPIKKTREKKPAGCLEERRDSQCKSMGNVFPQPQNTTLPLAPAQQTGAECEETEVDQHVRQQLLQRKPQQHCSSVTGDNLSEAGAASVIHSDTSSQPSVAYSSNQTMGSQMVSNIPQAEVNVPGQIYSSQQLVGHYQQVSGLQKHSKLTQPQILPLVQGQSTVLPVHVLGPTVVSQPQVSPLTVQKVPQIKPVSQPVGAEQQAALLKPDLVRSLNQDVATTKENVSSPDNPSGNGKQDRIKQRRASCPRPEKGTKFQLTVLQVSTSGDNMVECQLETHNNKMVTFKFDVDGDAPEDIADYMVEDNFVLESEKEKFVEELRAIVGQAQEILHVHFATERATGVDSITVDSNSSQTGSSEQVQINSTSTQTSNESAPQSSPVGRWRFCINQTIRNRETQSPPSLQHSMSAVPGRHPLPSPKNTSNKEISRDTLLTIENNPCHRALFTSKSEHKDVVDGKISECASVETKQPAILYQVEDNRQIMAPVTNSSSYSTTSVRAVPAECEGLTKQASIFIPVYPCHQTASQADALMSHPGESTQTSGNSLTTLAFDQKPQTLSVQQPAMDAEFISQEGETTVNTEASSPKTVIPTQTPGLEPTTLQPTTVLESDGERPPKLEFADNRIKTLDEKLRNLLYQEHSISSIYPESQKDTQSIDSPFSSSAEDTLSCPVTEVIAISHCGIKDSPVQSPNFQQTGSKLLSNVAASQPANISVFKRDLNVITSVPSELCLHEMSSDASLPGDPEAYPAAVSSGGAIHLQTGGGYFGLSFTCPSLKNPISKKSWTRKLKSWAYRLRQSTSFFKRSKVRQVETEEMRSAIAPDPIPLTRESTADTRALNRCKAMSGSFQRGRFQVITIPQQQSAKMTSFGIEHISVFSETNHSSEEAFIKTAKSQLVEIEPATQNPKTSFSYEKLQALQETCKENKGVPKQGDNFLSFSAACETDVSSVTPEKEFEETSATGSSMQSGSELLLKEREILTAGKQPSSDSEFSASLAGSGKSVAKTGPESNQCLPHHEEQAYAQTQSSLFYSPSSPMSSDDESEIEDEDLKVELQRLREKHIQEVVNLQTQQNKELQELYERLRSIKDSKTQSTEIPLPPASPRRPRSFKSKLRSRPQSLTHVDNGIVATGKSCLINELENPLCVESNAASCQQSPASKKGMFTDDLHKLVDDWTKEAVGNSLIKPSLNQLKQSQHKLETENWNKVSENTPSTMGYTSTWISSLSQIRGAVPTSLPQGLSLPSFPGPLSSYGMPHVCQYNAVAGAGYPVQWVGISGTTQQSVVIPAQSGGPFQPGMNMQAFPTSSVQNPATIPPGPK
# Cyclin-dependent kinase 5/CDK5 activator 1 (Homo sapiens), sequence (Q00535 whole entry): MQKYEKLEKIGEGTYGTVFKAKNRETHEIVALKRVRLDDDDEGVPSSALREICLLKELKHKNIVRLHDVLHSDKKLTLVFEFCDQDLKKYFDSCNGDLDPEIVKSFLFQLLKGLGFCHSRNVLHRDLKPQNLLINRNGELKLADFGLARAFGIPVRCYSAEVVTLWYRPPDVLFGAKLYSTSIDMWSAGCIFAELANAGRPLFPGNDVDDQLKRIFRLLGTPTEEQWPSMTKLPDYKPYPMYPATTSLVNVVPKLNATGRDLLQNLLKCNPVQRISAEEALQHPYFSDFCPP
# Cyclin-dependent kinase 5/CDK5 activator 1 (Homo sapiens), sequence (Q15078 99-307 partner limits assumed): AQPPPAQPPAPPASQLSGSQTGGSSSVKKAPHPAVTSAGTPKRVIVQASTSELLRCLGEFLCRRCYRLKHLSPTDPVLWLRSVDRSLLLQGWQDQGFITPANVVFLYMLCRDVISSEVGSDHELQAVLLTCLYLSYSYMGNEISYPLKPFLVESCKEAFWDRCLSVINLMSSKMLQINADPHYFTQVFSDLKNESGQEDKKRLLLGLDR
# Tyrosine-protein kinase Lyn, sequence (P07948 2-512 limits assumed): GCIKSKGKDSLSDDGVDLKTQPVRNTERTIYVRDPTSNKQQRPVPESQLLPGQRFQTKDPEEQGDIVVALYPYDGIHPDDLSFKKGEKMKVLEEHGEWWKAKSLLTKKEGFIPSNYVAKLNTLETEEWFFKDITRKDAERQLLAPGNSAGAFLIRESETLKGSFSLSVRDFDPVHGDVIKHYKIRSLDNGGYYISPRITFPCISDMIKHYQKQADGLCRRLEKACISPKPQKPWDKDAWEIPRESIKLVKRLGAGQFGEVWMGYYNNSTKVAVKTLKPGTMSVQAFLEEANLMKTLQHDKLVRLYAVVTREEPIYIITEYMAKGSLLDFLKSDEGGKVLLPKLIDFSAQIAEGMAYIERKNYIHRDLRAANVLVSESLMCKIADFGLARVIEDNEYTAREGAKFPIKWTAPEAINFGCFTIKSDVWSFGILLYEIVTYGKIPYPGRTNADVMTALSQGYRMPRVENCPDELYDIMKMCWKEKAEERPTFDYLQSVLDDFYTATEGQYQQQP
# Ribosomal protein S6 kinase alpha-1, sequence (Q15418 whole entry): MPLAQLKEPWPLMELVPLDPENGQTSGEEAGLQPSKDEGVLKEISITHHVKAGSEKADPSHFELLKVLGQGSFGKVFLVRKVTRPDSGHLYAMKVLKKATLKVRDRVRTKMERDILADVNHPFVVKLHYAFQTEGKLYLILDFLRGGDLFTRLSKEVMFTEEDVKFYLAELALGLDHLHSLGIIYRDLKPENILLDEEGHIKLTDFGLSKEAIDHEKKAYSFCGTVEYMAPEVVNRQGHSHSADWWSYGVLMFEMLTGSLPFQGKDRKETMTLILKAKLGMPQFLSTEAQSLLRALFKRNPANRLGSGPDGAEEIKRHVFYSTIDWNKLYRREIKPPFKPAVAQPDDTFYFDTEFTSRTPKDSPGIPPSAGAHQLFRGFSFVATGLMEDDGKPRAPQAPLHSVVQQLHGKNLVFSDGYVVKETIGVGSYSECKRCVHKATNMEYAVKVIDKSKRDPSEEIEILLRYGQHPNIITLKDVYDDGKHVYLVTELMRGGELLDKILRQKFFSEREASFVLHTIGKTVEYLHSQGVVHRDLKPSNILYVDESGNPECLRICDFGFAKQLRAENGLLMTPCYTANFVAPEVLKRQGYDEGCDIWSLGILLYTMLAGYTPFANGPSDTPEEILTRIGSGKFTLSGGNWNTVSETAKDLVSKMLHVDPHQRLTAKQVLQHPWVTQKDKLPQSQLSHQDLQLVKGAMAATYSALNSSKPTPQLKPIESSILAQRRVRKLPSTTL
# NT-3 growth factor receptor, sequence (Q16288 32-839 limits assumed): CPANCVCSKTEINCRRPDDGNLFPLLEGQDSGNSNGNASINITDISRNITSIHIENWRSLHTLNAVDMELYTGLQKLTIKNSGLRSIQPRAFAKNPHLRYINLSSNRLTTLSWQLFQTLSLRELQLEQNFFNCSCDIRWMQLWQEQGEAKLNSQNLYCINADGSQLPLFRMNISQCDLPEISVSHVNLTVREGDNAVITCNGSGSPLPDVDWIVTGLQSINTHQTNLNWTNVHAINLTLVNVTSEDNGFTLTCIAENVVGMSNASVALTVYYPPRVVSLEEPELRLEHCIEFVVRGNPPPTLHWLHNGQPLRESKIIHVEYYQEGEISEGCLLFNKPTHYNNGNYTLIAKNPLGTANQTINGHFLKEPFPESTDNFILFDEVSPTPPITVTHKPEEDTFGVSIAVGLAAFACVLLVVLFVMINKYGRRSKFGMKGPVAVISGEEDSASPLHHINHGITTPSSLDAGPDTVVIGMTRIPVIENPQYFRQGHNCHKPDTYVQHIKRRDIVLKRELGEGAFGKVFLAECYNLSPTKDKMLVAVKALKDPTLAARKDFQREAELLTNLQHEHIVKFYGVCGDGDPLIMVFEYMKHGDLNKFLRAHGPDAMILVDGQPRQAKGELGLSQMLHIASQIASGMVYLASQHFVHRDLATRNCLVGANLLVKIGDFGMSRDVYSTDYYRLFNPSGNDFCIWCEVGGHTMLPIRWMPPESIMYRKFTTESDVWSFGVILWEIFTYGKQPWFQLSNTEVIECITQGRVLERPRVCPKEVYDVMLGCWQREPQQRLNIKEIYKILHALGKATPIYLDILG
structure (smiles),measurement,setting,value
CCc1cc(Nc2nccc(-c3c(-c4ccc(OC)c(C(=O)Nc5c(F)cccc5F)c4)nc4ccccn34)n2)c(OC)cc1N1CCC(N2CCN(S(C)(=O)=O)CC2)CC1,IC50,[1],> 25 µM
CN(C)C/C=C/C(=O)Nc1ccc(C(=O)N2CCCC(Nc3ncc(Cl)c(-c4c[nH]c5ccccc45)n3)C2)cc1 (stereo not given),% of control,[2],81%
same,% of control,[3],86%
CN(C(=O)c1cnn2cccnc12)c1cc2c(cc1N1CCOCC1)C(=O)N(C[C@@H](F)C(C)(C)O)C2,dTM,SRSF protein kinase 1,0.2 K
CN1Cc2nccc(-c3cn(C)nc3-c3ccc(F)cc3)c2C1=O,IC50,[4],1.02 µM
CN(C)CCOc1ccc(-c2nc(-c3ccncc3)c(-c3ccc4c(c3)CC/C4=N\O)[nH]2)cc1,% of control,[5],86%
same,% of control,[6],100%
CC(=O)Nc1cccc(-n2c(=O)n(C3CC3)c(=O)c3c(Nc4ccc(I)cc4F)n(C)c(=O)c(C)c32)c1,% of control,[7],102%
COCC(=O)NC/C=C/c1ccc2ncnc(Nc3ccc(Oc4ccc(C)nc4)c(C)c3)c2c1 [CP-724714],% of control,[8],86%
Cc1cc([C@@H](C)Nc2ccccc2C(=O)O)c2nc(N3CCOCC3)cc(=O)n2c1 [AZD-6482],% of control,[9],100%
CC[C@@H]1[C@H](F)C(=O)N[C@@H]1COc1nccc2cc(C(N)=O)c(OC)cc12 [ZIMLOVISERTIB],% of inhibition,[10],-5.1%
same,% of inhibition,[11],-8.3%
COc1cc(Nc2nc(C)cc(-c3cnn4nc(OC)ccc34)n2)cc(C(F)(F)F)c1,% of control,[12],98%
same,% of control,[13],81%
Cc1cc(F)c(C(=O)Nc2cccc(-c3nncn3C(C)C)n2)cc1-n1cnc(C2CC2)c1,% of control,[14],100%
